From ChEMBL document CHEMBL1641526, “Structure-activity relationship (SAR) of the α-amino acid residue of potent tetrahydroisoquinoline (THIQ)-derived LFA-1/ICAM-1 antagonists” (Bioorg Med Chem Lett, 2011)

Legend:
[1] = target: T1, Intercellular adhesion molecule (ICAM-1), Integrin alpha-L/beta-2 (Homo sapiens, UniProt P05107+P05362+P20701); test: Inhibition of LFA1/ICAM1 interaction in human Hut-78 cells in presence of 10% human serum; type: cell-based
[2] = target: T1, Intercellular adhesion molecule (ICAM-1), Integrin alpha-L/beta-2; test: Inhibition of LFA1/ICAM1 interaction in human Hut-78 cells; type: cell-based
[3] = AUC in Sprague-Dawley rat at 5 mg/kg administered as single dose; type: ADME, organism-based; design: dose 5 mg/kg; details: plasma
[4] = Metabolic stability in human liver microsomes after 30 mins by LC/MS analysis; type: ADME, Microsome; details: read-out: Stability
[5] = Half life in Sprague-Dawley rat at 5 mg/kg administered as single dose; type: ADME, organism-based; design: dose 5 mg/kg; details: in vivo
[6] = Clearance in Sprague-Dawley rat at 5 mg/kg administered as single dose; type: ADME, organism-based; design: dose 5 mg/kg; details: in vivo
[7] = Metabolic stability in Sprague-Dawley rat liver microsomes after 30 mins by LC/MS analysis; type: ADME, Microsome; details: read-out: Stability

T1 sequence (P20701 whole entry): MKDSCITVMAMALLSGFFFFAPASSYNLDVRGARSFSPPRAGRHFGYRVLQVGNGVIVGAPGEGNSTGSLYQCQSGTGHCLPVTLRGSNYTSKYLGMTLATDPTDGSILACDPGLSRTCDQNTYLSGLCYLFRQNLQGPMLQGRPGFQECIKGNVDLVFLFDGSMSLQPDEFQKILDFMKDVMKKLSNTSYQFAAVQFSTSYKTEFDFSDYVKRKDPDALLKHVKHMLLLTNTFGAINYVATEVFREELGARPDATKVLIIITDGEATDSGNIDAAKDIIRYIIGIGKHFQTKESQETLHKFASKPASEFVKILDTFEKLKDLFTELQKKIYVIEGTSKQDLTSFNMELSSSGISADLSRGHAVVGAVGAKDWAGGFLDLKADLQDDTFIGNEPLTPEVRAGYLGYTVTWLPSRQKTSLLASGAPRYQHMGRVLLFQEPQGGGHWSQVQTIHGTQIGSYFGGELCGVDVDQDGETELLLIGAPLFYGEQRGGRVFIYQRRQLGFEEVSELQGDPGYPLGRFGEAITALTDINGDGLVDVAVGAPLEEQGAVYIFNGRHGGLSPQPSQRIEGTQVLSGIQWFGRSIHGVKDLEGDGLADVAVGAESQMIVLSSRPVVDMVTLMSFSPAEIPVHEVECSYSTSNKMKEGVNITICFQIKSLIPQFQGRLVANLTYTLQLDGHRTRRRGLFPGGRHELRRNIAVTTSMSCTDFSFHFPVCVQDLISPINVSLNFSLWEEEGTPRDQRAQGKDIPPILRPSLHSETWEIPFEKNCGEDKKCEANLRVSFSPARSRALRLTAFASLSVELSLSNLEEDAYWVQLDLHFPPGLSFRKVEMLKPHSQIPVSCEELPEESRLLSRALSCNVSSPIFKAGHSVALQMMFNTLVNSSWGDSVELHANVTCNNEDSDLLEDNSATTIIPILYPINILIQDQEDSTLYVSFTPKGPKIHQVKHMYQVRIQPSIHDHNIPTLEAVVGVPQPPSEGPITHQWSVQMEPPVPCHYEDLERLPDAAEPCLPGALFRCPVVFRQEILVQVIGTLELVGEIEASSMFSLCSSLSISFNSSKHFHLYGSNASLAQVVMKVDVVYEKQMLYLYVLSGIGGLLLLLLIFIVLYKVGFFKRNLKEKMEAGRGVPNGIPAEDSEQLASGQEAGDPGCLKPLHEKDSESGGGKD
T1 sequence (P05362 whole entry): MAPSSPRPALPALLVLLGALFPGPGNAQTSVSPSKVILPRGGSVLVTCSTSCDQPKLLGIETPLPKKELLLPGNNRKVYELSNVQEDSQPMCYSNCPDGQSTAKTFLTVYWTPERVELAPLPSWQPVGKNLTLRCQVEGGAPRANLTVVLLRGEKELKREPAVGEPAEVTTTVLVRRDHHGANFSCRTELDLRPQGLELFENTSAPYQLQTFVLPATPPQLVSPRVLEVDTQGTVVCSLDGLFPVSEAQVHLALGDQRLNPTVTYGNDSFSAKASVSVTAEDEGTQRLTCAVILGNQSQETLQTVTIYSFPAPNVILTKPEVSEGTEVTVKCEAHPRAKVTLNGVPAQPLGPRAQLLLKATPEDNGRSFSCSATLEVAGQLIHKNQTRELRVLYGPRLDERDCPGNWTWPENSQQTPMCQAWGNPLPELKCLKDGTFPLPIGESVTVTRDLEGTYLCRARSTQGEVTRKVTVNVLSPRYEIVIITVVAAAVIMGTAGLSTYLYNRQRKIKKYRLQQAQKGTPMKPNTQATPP
T1 sequence (P05107 whole entry): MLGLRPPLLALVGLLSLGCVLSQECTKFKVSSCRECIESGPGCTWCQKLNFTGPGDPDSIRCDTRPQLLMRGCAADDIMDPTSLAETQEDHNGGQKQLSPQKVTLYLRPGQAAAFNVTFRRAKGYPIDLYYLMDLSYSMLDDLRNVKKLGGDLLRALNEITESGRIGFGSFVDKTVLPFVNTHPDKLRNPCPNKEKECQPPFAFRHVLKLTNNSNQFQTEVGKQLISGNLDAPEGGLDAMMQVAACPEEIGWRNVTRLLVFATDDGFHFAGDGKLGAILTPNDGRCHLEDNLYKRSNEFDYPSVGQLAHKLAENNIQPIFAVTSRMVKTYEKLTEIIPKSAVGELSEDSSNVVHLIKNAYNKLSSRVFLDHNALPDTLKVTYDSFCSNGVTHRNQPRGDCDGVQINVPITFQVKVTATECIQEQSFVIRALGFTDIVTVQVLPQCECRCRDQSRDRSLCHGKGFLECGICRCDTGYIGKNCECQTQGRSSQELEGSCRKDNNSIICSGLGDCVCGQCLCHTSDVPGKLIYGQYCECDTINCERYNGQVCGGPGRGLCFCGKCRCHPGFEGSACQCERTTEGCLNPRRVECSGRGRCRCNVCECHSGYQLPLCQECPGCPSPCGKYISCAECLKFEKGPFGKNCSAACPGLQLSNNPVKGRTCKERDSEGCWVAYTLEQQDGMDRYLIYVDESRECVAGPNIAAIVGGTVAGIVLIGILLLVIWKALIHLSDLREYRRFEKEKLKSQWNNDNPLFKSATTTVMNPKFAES

Row | SMILES | IC50 [1] [nM] | IC50 [2] [nM] | also measured
1 | O=C(NC[C@H](NC(=O)c1c(Cl)cc2c(c1Cl)CCN(C(=O)c1ccc(Cl)cc1)C2)C(=O)O)c1cccs1 | 1500 | – | –
2 | O=C(NC[C@H](NC(=O)c1c(Cl)cc2c(c1Cl)CCN(C(=O)c1ccc3ccoc3c1)C2)C(=O)O)c1cccs1 | 950 | 5 | –
3 | CCOC(=O)[C@H](CNC(=O)c1cccs1)NC(=O)c1c(Cl)cc2c(c1Cl)CCN(C(=O)c1ccc3ccoc3c1)C2 | 950 | – | –
4 | CS(=O)(=O)c1ncc(C[C@H](NC(=O)c2c(Cl)cc3c(c2Cl)CCN(C(=O)c2ccc4ccoc4c2)C3)C(=O)O)[nH]1 | 560 | 30 | –
5 | CC(=O)n1cc(C[C@H](NC(=O)c2c(Cl)cc3c(c2Cl)CCN(C(=O)c2ccc(Cl)cc2)C3)C(=O)O)c2ccccc21 | – | 820 | –
6 | CS(=O)(=O)n1cc(C[C@H](NC(=O)c2c(Cl)cc3c(c2Cl)CCN(C(=O)c2ccc(Cl)cc2)C3)C(=O)O)c2ccccc21 | 25000 | 100 | –
7 | NS(=O)(=O)n1cc(C[C@H](NC(=O)c2c(Cl)cc3c(c2Cl)CCN(C(=O)c2ccc(Cl)cc2)C3)C(=O)O)c2ccccc21 | – | > 1000 | –
8 | Cc1cccc2c1c(C[C@H](NC(=O)c1c(Cl)cc3c(c1Cl)CCN(C(=O)c1ccc(Cl)cc1)C3)C(=O)O)cn2S(C)(=O)=O | – | > 1000 | –
9 | Cc1ccc2c(c1)c(C[C@H](NC(=O)c1c(Cl)cc3c(c1Cl)CCN(C(=O)c1ccc(Cl)cc1)C3)C(=O)O)cn2S(C)(=O)=O | 11000 | 26 | –
10 | Cc1ccc2c(C[C@H](NC(=O)c3c(Cl)cc4c(c3Cl)CCN(C(=O)c3ccc(Cl)cc3)C4)C(=O)O)cn(S(C)(=O)=O)c2c1 | 25000 | 39 | –
11 | Cc1cccc2c(C[C@H](NC(=O)c3c(Cl)cc4c(c3Cl)CCN(C(=O)c3ccc(Cl)cc3)C4)C(=O)O)cn(S(C)(=O)=O)c12 | 25000 | 140 | –
12 | O=C(N[C@@H](Cc1c[nH]cn1)C(=O)O)c1c(Cl)cc2c(c1Cl)CCN(C(=O)c1ccc(Cl)cc1)C2 | – | 430 | –
13 | Cn1cnc(C[C@H](NC(=O)c2c(Cl)cc3c(c2Cl)CCN(C(=O)c2ccc(Cl)cc2)C3)C(=O)O)c1 | – | 560 | –
14 | CC(C)n1cnc(C[C@H](NC(=O)c2c(Cl)cc3c(c2Cl)CCN(C(=O)c2ccc(Cl)cc2)C3)C(=O)O)c1 | – | 170 | –
15 | O=C(N[C@@H](Cc1cn(-c2ccccc2)cn1)C(=O)O)c1c(Cl)cc2c(c1Cl)CCN(C(=O)c1ccc(Cl)cc1)C2 | – | > 1000 | –
16 | CC(C)n1cc(C[C@H](NC(=O)c2c(Cl)cc3c(c2Cl)CCN(C(=O)c2ccc(Cl)cc2)C3)C(=O)O)nn1 | 1000 | 59 | AUC [3]: 1410 ng·h/mL; remaining at 0.5 h [4]: 92%; half-life [5]: 138 min; clearance [6]: > 60 mL/min/kg
17 | CC(C)c1cn(C[C@H](NC(=O)c2c(Cl)cc3c(c2Cl)CCN(C(=O)c2ccc(Cl)cc2)C3)C(=O)O)nn1 | – | 310 | –
18 | CC(C)c1cc(C[C@H](NC(=O)c2c(Cl)cc3c(c2Cl)CCN(C(=O)c2ccc(Cl)cc2)C3)C(=O)O)[nH]n1 | – | 250 | –
19 | CC(C)c1cnc(C[C@H](NC(=O)c2c(Cl)cc3c(c2Cl)CCN(C(=O)c2ccc(Cl)cc2)C3)C(=O)O)s1 | – | > 1000 | –
20 | CC(C)n1cc(C[C@H](NC(=O)c2c(Cl)cc3c(c2Cl)CCN(C(=O)c2cc4ccccc4o2)C3)C(=O)O)nn1 | 190 | 5 | –
21 | CC(C)n1cc(C[C@H](NC(=O)c2c(Cl)cc3c(c2Cl)CCN(C(=O)c2ccc4ccoc4c2)C3)C(=O)O)nn1 | 950 | 19 | AUC [3]: 3680 ng·h/mL; remaining at 0.5 h [4]: 86%; half-life [5]: 58.2 min; clearance [6]: 26 mL/min/kg; remaining at 0.5 h [7]: > 95%
22 | CC(C)n1cc(C[C@H](NC(=O)c2c(Cl)cc3c(c2Cl)CCN(C(=O)c2cc4ccccn4n2)C3)C(=O)O)nn1 | 260 | 7 | –
23 | CS(=O)(=O)c1ccc(C[C@H](NC(=O)c2c(Cl)cc3c(c2Cl)CCN(C(=O)c2ccc4ccoc4c2)C3)C(=O)O)o1 | 96 | 1.2 | AUC [3]: 1510 ng·h/mL; remaining at 0.5 h [4]: > 95%; half-life [5]: 25.8 min; clearance [6]: 60 mL/min/kg; remaining at 0.5 h [7]: > 65%
24 | CS(=O)(=O)c1ccc(C[C@H](NC(=O)c2c(Cl)cc3c(c2Cl)CCN(C(=O)c2ccc4ccoc4c2)C3)C(=O)O)s1 | – | 150 | –
25 | CS(=O)(=O)N1CCC(C[C@H](NC(=O)c2c(Cl)cc3c(c2Cl)CCN(C(=O)c2ccc4ccoc4c2)C3)C(=O)O)C1 (stereo not given in full) | – | 1000 | –
